Patent publication US11135340B2, “Compositions and methods for preparation of composite polymer coatings on medical implants, and their use for co-delivery of multiple antimicrobial agents” (THE JOHNS HOPKINS UNIVERSITY, priority 2016, dated 2021)
Where two headings read alike, the source gives them in different places.

What was measured:
[1] = In vivo release kinetics of ICG from PCL coating by fluorescence imaging; design: species or system mice; details: ICG loaded PCL coating on K-wire in mouse femur
From the text: FIG. 9A and FIG. 9B show in vivo release kinetics as measured by PCL coatings impregnated with a near-infrared (NIR) fluorescent dye Indocyanine green (ICG) as a surrogate for the antibiotic loaded coatings.
The near-infrared (NIR) fluorescence imaging dye indocyanine green (ICG) was used as a surrogate model for drug loading and release in an established mouse model (described in Example 4) to monitor the in vivo release kinetics from PCL coating (FIG. 9A and FIG. 9B). ICG loaded PCL was coated onto titanium K-wire (described in Example 1). The implants were surgically placed in a retrograde fashion with 1 mm protruding into the joint space of mice. The release of ICG was measured by its fluorescence intensity at different time points.

[2] = In vitro release of antibiotics from composite coatings on titanium K-wire implants; assay type: physicochemical; details: for release kinetics after storage: coated pins stored 6 weeks room temperature, 6 weeks −20° C. or 8 months frozen, vs fresh; for Day 1 release of Gentamicin: of total loading
Experimental: The release rate of the polymer composite film was measured by HPLC. Drug release studies were conducted using coated pins created with the same loading parameters as those used for later in vivo testing (10% (w/w) drug combinations) electrospun for 60 seconds at injection rates of 0.5 mL/h from each needle. Release rate of antibiotics from the composite polymer coating was characterized by placing coated pins in 200 μL pH 7.4 PBS buffer and incubating at 37° C. in an aluminum film-covered incubator to prevent possible light-induced drug degradation. Release media was changed at fixed time points over a period of two weeks and stored in a −20° C. freezer until analysis. Drug concentrations in release media for each day were determined via reverse-phase HPLC using a C-18 column in an Alliance HPLC system and Waters 2996 PDA detector. The mobile phase was a mixture of acetonitrile and water both mixed with 0.1% TFA acid, which was run at a gradient from (15%/85%) to (40%/60%) for a total runtime of 15 minutes per sample for the elution of Van/Rif and Lin/Rif drug loading groups. Elution of the Dap/Rif loading group was conducted using a mobile phase of (49%/51%) of acetonitrile and water both mixed with 0.1% TFA acid for a total run time of 11 minutes per sample. Concentrations of the drugs were quantified using wavelengths of 343 nm for Rif, 254 nm for Lin, 280 nm for Van and 223 nm for Dap using prepared standard curves for all three drugs. […] Quantification was performed through the derivatization of Gentamicin with ninhydrin at 95° C. for 15 minutes and detection with a Biotek Synergy2 plate reader.
Drug release studies were conducted using coated pins created with the same loading parameters as detailed above. Release kinetics of antibiotics from the composite coating were characterized by placing coated pins in 200 μL of phosphate buffer saline (PBS, pH 7.4) at 37° C. Release media was changed daily over a period of two weeks and stored at −20° C. until analysis. Drug concentrations in release media were measured on days 1, 2, 3, 5, 7, 10 and 14 using a Waters Alliance 2690 HPLC system (Waters Corporation, Milford, Mass.) equipped with an Accucore RP-MS C18 column (100 mm×2.1 mm; Thermo Fisher Scientific) and a Waters 2996 PDA detector. The elution was carried out with a mobile phase of water and acetonitrile both mixed with 0.1% TFA at a flow rate of 1 mL/min at ambient temperature using a linear gradient elution program of 85% water to […] in 15 minutes. Concentrations of the drugs were quantified using wavelengths for Van (280 nm), Lin (254 nm), Dap (224 nm) and Rif (263 nm).

XEN36 = test: MIC of XEN36 for each antibiotic; assay type: cell-based, Staphylococcus aureus; details: S. aureus XEN36
S. aureus = test: In vitro zone of inhibition assay of coated K-wires; assay type: cell-based, Staphylococcus aureus; details: any of the storage conditions vs freshly prepared coatings
From the text: A zone of inhibition assay was used as an additional assay to evaluate the in vitro release of antibiotic(s) from the composite coating. Tryptic soy agar bacterial plates were inoculated with S. aureus bacteria cells to yield a bacterial lawn after overnight culture. After bacterial inoculation and before culturing the plates, two identical titanium K-wires loaded with either 10 w/w % Lin, 10 w/w % Van, or 10 w/w % Dap alone, or in combination with Rif were placed in two separate areas on the plate. After culturing the plates at 37° C. for 24 hours, the antimicrobial activity of the eluded antibiotic(s) into the agar was measured as a zone of inhibition (diameter [mm]) of the bacterial growth around the K-wire.
Long-term efficacy of the antimicrobial activity was tested by storing electrospun pins at room temperature for 6 weeks, −20° C. for 6 weeks, and −80° C. for 8 months. Coated pins were protected from light during storage. These pins were then used in the same zone of inhibition assay as described hereinabove. These antimicrobial results were further confirmed with a two-week in vitro release study to determine release kinetics after storage.
Tryptic soy agar (TSA) bacterial plates were inoculated with S. aureus to yield a bacterial lawn after overnight culture. Before culturing the plates, two titanium K-wires each loaded with the same combination of antibiotics from each set were placed in two separate areas on the plate. After culturing at 37° C. for 24 hours, the zone of inhibition (ZOI) (diameter/mm) of bacterial growth were measured.

[3] = test system: S. aureus bioluminescent strain Xen36; test: Mouse model of prosthetic joint infection: in vivo bioluminescence imaging and CFU; design: species or system mice; details: intravenous prophylaxis 110 mg/kg at −1 and 16 hours
[4] = Staphylococcus aureus, read-out: MIC

CC1(C)C(/C=C/C=C/C=C/C=C2\N(CCCCS(=O)(=O)O)c3ccc4ccccc4c3C2(C)C)=[N+](CCCCS(=O)(=O)[O-])c2ccc3ccccc3c21 [ICG, indocyanine green]
duration of ICG release [1]: over two weeks
peak dissolution of ICG [1]: 1 days

CC(=O)NC[C@H]1CN(c2ccc(N3CCOCC3)c(F)c2)C(=O)O1 [Lin, linezolid]
release kinetics after storage [2]: no difference in the release kinetics
MIC (XEN36; [4]): 2 µg/mL
antimicrobial activity (zone of inhibition) after storage (S. aureus): no significant loss of antimicrobial activity

CO[C@H]1/C=C/O[C@@]2(C)Oc3c(C)c(O)c4c(O)c(c(/C=N/N5CCN(C)CC5)c(O)c4c3C2=O)NC(=O)/C(C)=C\C=C\[C@H](C)[C@H](O)[C@@H](C)[C@@H](O)[C@@H](C)[C@H](OC(C)=O)[C@@H]1C [Rif, Rifampin]
release of Rif out of the composite film coating after storage (reduced or not) ([2]; pins stored at −20° C.): not when the pins were stored at −20 °C
release of Rif out of the composite film coating after storage ([2]; storage at room temperature for six weeks): reduced
Rif remains above the MIC ([2]; tuned by PCL molecular weight or PCL layer thickness): 2 to 5 days
MIC (XEN36; [4]): 0.5 µg/mL
antimicrobial activity (zone of inhibition) after storage (S. aureus): no significant loss of antimicrobial activity

Gentamicin
Gentamicin release profile ([2]; 50:50 PLGA): sustained release
Gentamicin release profile ([2]; 75:25 PLGA): only a burst release
release of Gentamicin above the MIC ([2]; controlled by polymer choice (PLA:PGA ratio of PLGA)): 2 to 14 days
Day 1 release of Gentamicin ([2]; PLGA nanofibers alone): 80%
Day 1 release of Gentamicin ([2]; PLGA nanofibers embedded in PCL film layer): less than 45%
Gentamicin MIC concentration sustained ([2]; release from PLGA nanofibers of composite coating, FIG. 11A): up to 14 days
MIC (XEN36): roughly 10 μg/mL

CCCCCCCCCC(=O)N[C@@H](Cc1c[nH]c2ccccc12)C(=O)N[C@H](CC(N)=O)C(=O)N[C@@H](CC(=O)O)C(=O)N[C@@H]1C(=O)NCC(=O)N[C@@H](CCCN)C(=O)N[C@@H](CC(=O)O)C(=O)N[C@H](C)C(=O)N[C@@H](CC(=O)O)C(=O)NCC(=O)N[C@H](CO)C(=O)N[C@@H]([C@H](C)CC(=O)O)C(=O)N[C@@H](CC(=O)c2ccccc2N)C(=O)O[C@@H]1C [Dap, daptomycin]
release kinetics after storage [2]: no difference in the release kinetics
MIC (XEN36; [4]): 0.25 µg/mL
antimicrobial activity (zone of inhibition) after storage (S. aureus): no significant loss of antimicrobial activity

CN[C@H](CC(C)C)C(=O)N[C@H]1C(=O)N[C@@H](CC(N)=O)C(=O)N[C@H]2C(=O)N[C@H]3C(=O)N[C@H](C(=O)N[C@H](C(=O)O)c4cc(O)cc(O)c4-c4cc3ccc4O)[C@H](O)c3ccc(c(Cl)c3)Oc3cc2cc(c3O[C@@H]2O[C@H](CO)[C@@H](O)[C@H](O)[C@H]2O[C@H]2C[C@](C)(N)[C@H](O)[C@H](C)O2)Oc2ccc(cc2Cl)[C@H]1O [Van, vancomycin]
BLI signals [3]: decreased BLI signals
clearance of infection (CFU from bone/joint tissue and implants) [3]: the infection was not cleared
release kinetics after storage [2]: no difference in the release kinetics
MIC (XEN36; [4]): 0.5 µg/mL
antimicrobial activity (zone of inhibition) after storage (S. aureus): no significant loss of antimicrobial activity
